Legend:
Assay in all cases: relative viability (nuclei count vs DMSO), 5 days (fraction); higher = more cells survive
Elesclomol + Pictilisib = compound: CN(NC(=O)CC(=O)NN(C)C(=S)c1ccccc1)C(=S)c1ccccc1 [Elesclomol] + CS(=O)(=O)N1CCN(Cc2cc3nc(-c4cccc5[nH]ncc45)nc(N4CCOCC4)c3s2)CC1 [Pictilisib] (partner 1 µM)
In short: (§1)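 Relative viability is defined as nuclei in treated wells over nuclei in vehicle wells. Duplicate plates were run and medians reported. Lung cancer cell lines in 1536-well plates were dosed by pin tool one day after seeding, with one drug or with a fixed anchor-drug dose plus five library-drug doses (not always all listed) in √10 steps, and nuclei were counted after 5 days.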

Elesclomol + Lapatinib = compound: CN(NC(=O)CC(=O)NN(C)C(=S)c1ccccc1)C(=S)c1ccccc1 [Elesclomol] + CS(=O)(=O)CCNCc1ccc(-c2ccc3ncnc(Nc4ccc(OCc5cccc(F)c5)c(Cl)c4)c3c2)o1 [Lapatinib] (partner 2 µM)
In short: as §1

Elesclomol + Foretinib = compound: CN(NC(=O)CC(=O)NN(C)C(=S)c1ccccc1)C(=S)c1ccccc1 [Elesclomol] + COc1cc2c(Oc3ccc(NC(=O)C4(C(=O)Nc5ccc(F)cc5)CC4)cc3F)ccnc2cc1OCCCN1CCOCC1 [Foretinib] (partner 0.25 µM)
In short: as §1

Elesclomol + Linsitinib = compound: CN(NC(=O)CC(=O)NN(C)C(=S)c1ccccc1)C(=S)c1ccccc1 [Elesclomol] + C[C@]1(O)C[C@@H](c2nc(-c3ccc4ccc(-c5ccccc5)nc4c3)c3c(N)nccn32)C1 [Linsitinib] (partner 1 µM)
In short: as §1

Elesclomol + Phenformin = compound: CN(NC(=O)CC(=O)NN(C)C(=S)c1ccccc1)C(=S)c1ccccc1 [Elesclomol] + N=C(N)NC(=N)NCCc1ccccc1 [Phenformin] (partner 250 µM)
In short: as §1

Elesclomol + Olaparib = compound: CN(NC(=O)CC(=O)NN(C)C(=S)c1ccccc1)C(=S)c1ccccc1 [Elesclomol] + O=C(c1cc(Cc2n[nH]c(=O)c3ccccc23)ccc1F)N1CCN(C(=O)C2CC2)CC1 [Olaparib] (partner 8 µM)
In short: as §1

Elesclomol + Navitoclax = compound: CN(NC(=O)CC(=O)NN(C)C(=S)c1ccccc1)C(=S)c1ccccc1 [Elesclomol] + CC1(C)CCC(c2ccc(Cl)cc2)=C(CN2CCN(c3ccc(C(=O)NS(=O)(=O)c4ccc(N[C@H](CCN5CCOCC5)CSc5ccccc5)c(S(=O)(=O)C(F)(F)F)c4)cc3)CC2)C1 [Navitoclax] (partner 0.5 µM)
In short: as §1

Elesclomol + Decitabine = compound: CN(NC(=O)CC(=O)NN(C)C(=S)c1ccccc1)C(=S)c1ccccc1 [Elesclomol] + Nc1ncn([C@H]2C[C@H](O)[C@@H](CO)O2)c(=O)n1 [Decitabine] (partner 2 µM)
In short: as §1

Elesclomol + Alpelisib = compound: CN(NC(=O)CC(=O)NN(C)C(=S)c1ccccc1)C(=S)c1ccccc1 [Elesclomol] + Cc1nc(NC(=O)N2CCC[C@H]2C(N)=O)sc1-c1ccnc(C(C)(C)C(F)(F)F)c1 [Alpelisib] (partner 2 µM)
In short: as §1

Elesclomol + Crizotinib = compound: CN(NC(=O)CC(=O)NN(C)C(=S)c1ccccc1)C(=S)c1ccccc1 [Elesclomol] + C[C@@H](Oc1cc(-c2cnn(C3CCNCC3)c2)cnc1N)c1c(Cl)ccc(F)c1Cl [Crizotinib] (partner 1 µM)
In short: as §1

Elesclomol = compound: CN(NC(=O)CC(=O)NN(C)C(=S)c1ccccc1)C(=S)c1ccccc1 [Elesclomol]
In short: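 For viability, nuclei in each treated well were divided by nuclei in vehicle wells and the median across plates was taken. Lung cancer cell lines in 1536-well plates were pinned with five library-drug doses (not always all listed) spaced by √10, cultured 5 days without medium change, and imaged at 4× after Hoechst staining, with plates passing only at control CV below 25% and at least one doubling.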

Cell Line A549 has a relative viability (Elesclomol + Pictilisib; first compound 0.003162 µM) of 0.493, a relative viability (Elesclomol + Pictilisib; first compound 0.01 µM) of 0.246 and a relative viability (Elesclomol + Pictilisib; first compound 0.03162 µM) of 0.1. For the same cell line, the relative viability (Elesclomol + Pictilisib; first compound 0.1 µM) was 0.0728, the relative viability (Elesclomol + Lapatinib; first compound 0.003162 µM) was 0.74 and the relative viability (Elesclomol + Lapatinib; first compound 0.01 µM) was 0.174. For the same cell line, the relative viability (Elesclomol + Lapatinib; first compound 0.03162 µM) was 0.29, the relative viability (Elesclomol + Lapatinib; first compound 0.1 µM) was 0.058 and the relative viability (Elesclomol + Foretinib; first compound 0.003162 µM) was 0.886. The relative viability (Elesclomol + Foretinib; first compound 0.01 µM) was 0.504, the relative viability (Elesclomol + Foretinib; first compound 0.03162 µM) was 0.0597 and the relative viability (Elesclomol + Foretinib; first compound 0.1 µM) was 0.0242. It also gave a relative viability (Elesclomol + Linsitinib; first compound 0.003162 µM) of 0.627, a relative viability (Elesclomol + Linsitinib; first compound 0.01 µM) of 0.501 and a relative viability (Elesclomol + Linsitinib; first compound 0.03162 µM) of 0.378. It also gave a relative viability (Elesclomol + Linsitinib; first compound 0.1 µM) of 0.097, a relative viability (Elesclomol + Phenformin; first compound 0.003162 µM) of 0.0993 and a relative viability (Elesclomol + Phenformin; first compound 0.01 µM) of 0.0488. The relative viability (Elesclomol + Phenformin; first compound 0.03162 µM) was 0.0406, the relative viability (Elesclomol + Phenformin; first compound 0.1 µM) was 0.0078 and the relative viability (Elesclomol + Olaparib; first compound 0.003162 µM) was 0.289. It also gave a relative viability (Elesclomol + Olaparib; first compound 0.01 µM) of 0.22, a relative viability (Elesclomol + Olaparib; first compound 0.03162 µM) of 0.189 and a relative viability (Elesclomol + Olaparib; first compound 0.1 µM) of 0.0697. For the same cell line, the relative viability (Elesclomol + Navitoclax; first compound 0.003162 µM) was 0.798, the relative viability (Elesclomol + Navitoclax; first compound 0.01 µM) was 0.181 and the relative viability (Elesclomol + Navitoclax; first compound 0.03162 µM) was 0.0437. It also gave a relative viability (Elesclomol + Navitoclax; first compound 0.1 µM) of 0.03, a relative viability (Elesclomol + Decitabine; first compound 0.003162 µM) of 0.293 and a relative viability (Elesclomol + Decitabine; first compound 0.01 µM) of 0.22. For the same cell line, the relative viability (Elesclomol + Decitabine; first compound 0.03162 µM) was 0.261, the relative viability (Elesclomol + Decitabine; first compound 0.1 µM) was 0.133 and the relative viability (Elesclomol + Alpelisib; first compound 0.003162 µM) was 0.731. It also gave a relative viability (Elesclomol + Alpelisib; first compound 0.01 µM) of 0.229, a relative viability (Elesclomol + Alpelisib; first compound 0.03162 µM) of 0.0735 and a relative viability (Elesclomol + Alpelisib; first compound 0.1 µM) of 0.0217. The relative viability (Elesclomol + Crizotinib; first compound 0.003162 µM) was 0.445, the relative viability (Elesclomol + Crizotinib; first compound 0.01 µM) was 0.239 and the relative viability (Elesclomol + Crizotinib; first compound 0.03162 µM) was 0.0617. It also gave a relative viability (Elesclomol + Crizotinib; first compound 0.1 µM) of 0.0458, a relative viability (Elesclomol; 0.003162 µM) of 0.912 and a relative viability (Elesclomol; 0.01 µM) of 0.417. The relative viability (Elesclomol; 0.03162 µM) was 0.24 and the relative viability (Elesclomol; 0.1 µM) was 0.0637.

Reference: the supplement of paper PMC10307832
